Data from article PMC3920740 (Biopolymers, 2013).
Where a SMILES comes first, the peptide text is derived from it. The star is where a group is joined. Acetyl(1-pyrenyl) = O=C(Cc1ccc2ccc3cccc4ccc1c2c34)*; Acetyl(2-naphthyl) = O=C(Cc1ccc2ccccc2c1)*

Experiments:
MMP-9 [1] = assay: Digestion of peptides by MMP-9; format: in vitro ADME; settings: MMP-9 (10 U) in Tris-HCl buffer, pH 7.5
MMP-9 [2] = assay: Tris-HCl buffer; settings: 37 °C, up to 72 h

## CC(C)C[C@H](NC(=O)CNC(=O)[C@H](CC(C)C)NC(=O)[C@@H]1CCCN1C(=O)CNC(=O)[C@H](Cc1ccccc1)NC(=O)[C@H](Cc1ccccc1)NC(=O)Cc1ccc2ccccc2c1)C(=O)N[C@@H](CCCNC(=N)N)C(=O)N[C@@H](CO)C(=O)N[C@@H](CCCCN)C(=O)O [3a] ({Acetyl(2-naphthyl)}-FFGPLGLRSK-OH; N-terminus assumed)
MMP-9 [1]
  remaining at 72 h, 500 μM: 41%

## CC(C)C[C@H](NC(=O)[C@H](CO)NC(=O)[C@H](CC(C)C)NC(=O)[C@@H]1CCCN1C(=O)Cc1ccc2ccc3cccc4ccc1c2c34)C(=O)N[C@@H](CCCNC(=N)N)C(=O)N[C@@H](CO)C(=O)N[C@@H](CCCCN)C(=O)O [4c] ({Acetyl(1-pyrenyl)}-PLSLRSK-OH; N-terminus assumed)
MMP-9 [1]
  remaining at 72 h, 500 μM: 18%

## PLGLRSK
MMP-9 [2]
  cleaved bond: L-R, major

## PLSLRSK
MMP-9 [2]
  cleaved bond: L-R, major
